# System: patients suffering major depressive disorder
# Assay: open-label desvenlafaxine treatment of MDD outpatients, HDRS assessed every two weeks
# Format: in vivo, human
# Method: A […] clinical trial was performed to examine the clinical validity of a five gene, combinatorial, pharmacogenetic-based antidepressant dosing support tool for desvenlafaxine dosing. Participants were self-identified Caucasian outpatients aged 18 years and older with a principal DSM-5 diagnosis of MDD (semi-structured psychiatrist assessment) and a 17-item Hamilton Depression Rating Scale (HDRS) score greater than or equal to 18. Participants with other active psychiatric diagnoses were excluded, specifically those suffering with adjustment disorder with depressed mood, persistent depressive disorder, and subjects with a principal clinical diagnosis of a personality disorder. Additional exclusion criteria included pregnancy or breastfeeding, hepatic or renal impairments, co-prescription of known UGT1A1 or ABCB1 inducers/inhibitors (e.g. St John's Wort, valproic acid), regular grapefruit juice consumption, and current smoking which may influence appropriate dosing. A total of 131 individuals were screened for eligibility criteria. […] All participants received desvenlafaxine in an open-label manner during the 10-week study period. At baseline, age, sex, duration of the current depressive episode, and number of depressive episodes was recorded. […] Symptom severity was assessed at baseline and every two-weeks thereafter during the study period with the HDRS. […]
smiles,measurement,setting,value
CN(C)CC(c1ccc(O)cc1)C1(O)CCCCC1 (centres unmarked) [desvenlafaxine],participants achieved symptom remission (HDRS score of 7 or less by week 10),"after 10 weeks of desvenlafaxine treatment, 119 MDD participants, dose adjusted every two weeks",80%
same,greater than 50% reduction in HDRS from baseline,among the 24 participants who did not achieve symptom remission by week 10,42%

# From patent publication US20180105876A1, “MEDICATION DOSING REPORT” (BAYCREST TECHNOLOGY PTY LTD, priority 2015, published 2018)
